ChEMBL document CHEMBL5230081, “Battle against Vancomycin-Resistant Bacteria: Recent Developments in Chemical Strategies” (J Med Chem, 2019)
In brackets after ≈: the same amount, converted by molar mass.

Columns and labels:
Enterococcus faecium [1] = test: Antimicrobial activity against Vancomycin-resistant (Van S) Enterococcus faecium ATCC 51559 assessed as reduction in microbial growth; assay type: functional
Enterococcus faecium [2] = test: Antibacterial activity against Vancomycin-resistant Enterococcus faecium assessed as reduction in bacterial growth measured after 48 hrs by microbroth dilution method; assay type: functional
Pseudomonas aeruginosa [3] = test: Antibacterial activity against colistin-resistant Pseudomonas aeruginosa PA101243 assessed as reduction in bacterial growth after 18 hrs by microbroth dilution method; assay type: functional
Enterococcus faecium [4] = test: Antibacterial activity against Enterococcus faecium SR7917 (VRE); assay type: functional
Enterococcus faecalis [5] = test: Antimicrobial activity against Vancomycin - resistant Enterococcus faecalis SR7914 assessed as inhibition of bacterial growth; assay type: functional
Staphylococcus aureus [6] = test: Antimicrobial activity against vancomycin-resistant Staphylococcus aureus assessed as microbial growth reduction; assay type: functional
Staphylococcus aureus [7] = test: Antibacterial activity against Vancomycin-intermediate Staphylococcus aureus NRS1 assessed as bacterial growth inhibition; assay type: functional
Staphylococcus aureus [8] = test: Antimicrobial activity against Vancomycin-resistant Staphylococcus aureus incubated for 20 hrs by broth dilution method; assay type: functional
Enterococcus faecium [9] = test: Antimicrobial activity against Vancomycin-resistant (Van A) Enterococcus faecium ATCC 51559 assessed as reduction in microbial growth; assay type: functional
Pseudomonas aeruginosa [10] = test: Synergistic antibacterial activity against multidrug-resistant Pseudomonas aeruginosa ATCC 27853 assessed as reduction in bacterial viability after 12 hrs in presence of 1/2 MIC of vancomycin; assay type: functional
Pseudomonas aeruginosa [11] = test: Antibacterial activity against Pseudomonas aeruginosa ATCC 27853 assessed as bacterial growth inhibition measured after 24 hrs by microbroth dilution method; assay type: functional
Escherichia coli [12] = test: Synergistic antibacterial activity against Escherichia coli in presence of Trimethoprim; assay type: functional
Escherichia coli [13] = test: Synergistic antibacterial activity against Escherichia coli in presence of nitrofurantoin; assay type: functional
Escherichia coli [14] = test: Synergistic antibacterial activity against multidrug-resistant Escherichia coli assessed as reduction in bacterial viability after 12 hrs in presence of 1/2 MIC of trimethoprim; assay type: functional
Staphylococcus aureus [15] = test: Antibacterial activity against Staphylococcus aureus assessed as biofilm formation; assay type: functional
Escherichia coli [16] = test: Synergistic antibacterial activity against multidrug-resistant Escherichia coli assessed as reduction in bacterial viability after 12 hrs in presence of 1/2 MIC of nitrofurantoin; assay type: functional
Enterococcus faecalis [17] = test: Antimicrobial activity against Vancomycin - resistant Enterococcus faecalis assessed as inhibition of bacterial growth; assay type: functional
Enterococcus faecalis [18] = test: Antibiofilm activity against Enterococcus faecalis ATCC 47077 biofilms assessed as biofilm eradication; assay type: functional
Pseudomonas aeruginosa [19] = test: Antibacterial activity against multi drug resistant Pseudomonas aeruginosa assessed as reduction in microbial growth after 16 to 18 hrs by microbroth dilution method; assay type: functional; details: time 16-18 hrs
Acinetobacter baumannii [20] = test: Antibacterial activity against Acinetobacter baumannii R4942 assessed as reduction in bacterial growth in presence of telavancin by broth microdilution method; assay type: functional
Escherichia coli [21] = test: Antibacterial activity against Escherichia coli assessed as bacterial growth inhibition measured after 48 hrs in presence of vancomycin; assay type: functional
Escherichia coli [22] = test: Antimicrobial activity against Escherichia coli ATCC 8739 assessed as microbial growth inhibition in presence of Vancomycin by agar dilution method; assay type: functional
Enterobacter cloacae = test: Antibacterial activity against Enterobacter cloacae NDM-1 assessed as reduction in bacterial growth by broth microdilution method; assay type: functional
Klebsiella pneumoniae = test: Antibacterial activity against Klebsiella pneumoniae R3949 assessed as reduction in bacterial growth in presence of Meropenem by broth microdilution method; assay type: functional
Pseudomonas aeruginosa [23] = test: Antibacterial activity against Pseudomonas aeruginosa R590 assessed as reduction in bacterial growth by broth microdilution method; assay type: functional
Escherichia coli [24] = test: Antibacterial activity against Escherichia coli ATCC 25922 assessed as bacterial growth inhibition measured after 48 hrs in presence of vancomycin; assay type: functional
Acinetobacter baumannii [25] = test: Antibacterial activity against Acinetobacter baumannii R4942 assessed as reduction in bacterial growth in presence of teicoplanin by broth microdilution method; assay type: functional
Pseudomonas aeruginosa [26] = test: Antibacterial activity against Pseudomonas aeruginosa R590 assessed as reduction in bacterial growth in presence of vancomycin by broth microdilution method; assay type: functional
Acinetobacter baumannii [27] = test: Antibacterial activity against Acinetobacter baumannii R4942 assessed as reduction in bacterial growth by broth microdilution method; assay type: functional
Acinetobacter baumannii [28] = test: Antimicrobial activity against Acinetobacter baumannii ATCC 17978 assessed as microbial growth inhibition; assay type: functional
Enterococcus faecium [29] = test: Antimicrobial activity against Vancomycin-resistant Enterococcus faecium ATCC 51559 assessed as inhibition in microbial growth measured after 48 hrs by microbroth dilution method; assay type: functional
Acinetobacter baumannii [30] = test: Antimicrobial activity against Acinetobacter baumannii assessed as microbial growth inhibition; assay type: functional
Enterococcus faecium [31] = test: Antibacterial activity against Vancomycin-resistant Enterococcus faecium assessed as colony forming unit at 20 times MIC concentration measured after 21 days by time kill assay; assay type: functional; details: time 21 day
[32] = Binding affinity to D-Ala-D-Lac assessed as dissociation constant
[33] = Binding affinity to D-Ala-D-Ala assessed as dissociation constant
[34] = Enterococcus faecium, ATCC 51559, read-out: MIC

CCCCCCCCCC(=O)O[C@@H]1c2ccc(c(Cl)c2)Oc2cc3cc(c2O[C@@H]2O[C@H](CO)[C@@H](O)[C@H](O)[C@H]2O[C@H]2C[C@](C)(N)[C@H](O)[C@H](C)O2)Oc2ccc(cc2Cl)[C@@H](O)[C@@H](NC(=O)[C@@H](CC(C)C)NC)C(=O)N[C@@H](CC(N)=O)C(=O)N[C@H]3C(=O)N[C@H]2C(=O)N[C@@H]1C(=O)N[C@H](C(=O)O)c1ccccc1-c1cccc2c1
MIC (Enterococcus faecium [1]): 0.25 µg/mL

H-ILRWPWWPWRRK-NH2 [OMIGANAN]
MIC (Enterococcus faecium [2]): 2 µg/mL

C[C@@H](O)[C@H]1C(=O)N2C(C(=O)O)=C(S[C@@H]3CN[C@H](C(=O)N(C)C)C3)[C@H](C)[C@H]12 [MEROPENEM]
MIC (Pseudomonas aeruginosa [3]): < 1 µg/mL

CCCCCCCCCCCCCCCCC[C@H]1CN(C)[C@@H]([C@H](O[C@@H]2O[C@H](CN)[C@@H](O)[C@H]2O)[C@H]2O[C@@H](n3ccc(=O)[nH]c3=O)[C@H](O)[C@@H]2O)C(=O)N(C)[C@@H]1C(=O)O
MIC (Enterococcus faecium [4]): 8 µg/mL (≈ 10 µM)
MIC (Enterococcus faecalis [5]): 8 µg/mL (≈ 10 µM)

CCCCCCCCCCC(=O)N[C@@H](CCCCN)C(=O)N[C@@H](CCCCN)C(=O)NC(CCCCNC(=O)[C@H]1NC(=O)[C@H]2NC(=O)[C@H](NC(=O)[C@@H]3NC(=O)[C@H](CC(N)=O)NC(=O)[C@H](NC(=O)[C@@H](CC(C)C)NC)[C@H](O)c4ccc(c(Cl)c4)Oc4cc3cc(c4O[C@@H]3O[C@H](CO)[C@@H](O)[C@H](O)[C@H]3O[C@H]3C[C@](C)(N)[C@H](O)[C@H](C)O3)Oc3ccc(cc3Cl)[C@H]2O)c2ccc(O)c(c2)-c2c(O)cc(O)cc21)C(=O)O (stereo not given in full)
MIC (Staphylococcus aureus [6]): 0.05 µg/mL (≈ 0.025 µM)
MIC (Staphylococcus aureus [7]): 0.5 µg/mL
MIC (Staphylococcus aureus [8]): 1 µg/mL
MIC (Enterococcus faecium [9]; [34]): 6 µg/mL

CN[C@H](CC(C)C)C(=O)N[C@H]1C(=O)N[C@@H](CC(N)=O)C(=O)N[C@H]2C(=O)N[C@H]3C(=O)N[C@H](C(=O)N[C@H](C(=O)O)c4cc(O)cc(O)c4-c4cc3ccc4O)[C@H](O)c3ccc(c(Cl)c3)Oc3cc2cc(c3O[C@@H]2O[C@H](CO)[C@@H](O)[C@H](O)[C@H]2O[C@H]2C[C@](C)(N)[C@H](O)[C@H](C)O2)Oc2ccc(cc2Cl)[C@H]1O [VANCOMYCIN]
fractional inhibitory concentration index (FICI) (Pseudomonas aeruginosa [10]): <0.5
MIC (Pseudomonas aeruginosa [11]): 0.5 µg/mL (≈ 0.345 µM)
MIC (Escherichia coli [12]): 0.2 µg/mL
MIC (Escherichia coli [13]): 6.25 µg/mL
MIC (Escherichia coli [14]): 3.5 µg/mL
MBEC (Staphylococcus aureus [15]): >512 µg/mL
MIC (Escherichia coli [16]): 12.5 µg/mL
MIC (Enterococcus faecalis [17]): 31 µg/mL (≈ 21.4 µM)
MBEC (Enterococcus faecalis [18]): >512 µg/mL

NC[C@H]1O[C@H](O[C@H]2[C@H](O)[C@@H](O[C@H]3O[C@H](CO)[C@@H](O)[C@H](N)[C@H]3O)[C@H](N)C[C@@H]2N)[C@H](N)C[C@@H]1O [TOBRAMYCIN]
MIC (Pseudomonas aeruginosa [19]): 0.7 µM

CCCCCCCCCCCCCC[N+](C)(C)CCCNC(=O)[C@H]1NC(=O)[C@H]2NC(=O)[C@H](NC(=O)[C@@H]3NC(=O)[C@H](CC(N)=O)NC(=O)[C@H](NC(=O)[C@@H](CC(C)C)NC)[C@H](O)c4ccc(c(Cl)c4)Oc4cc3cc(c4O[C@@H]3O[C@H](CO)[C@@H](O)[C@H](O)[C@H]3O[C@H]3C[C@](C)(N)[C@H](O)[C@H](C)O3)Oc3ccc(cc3Cl)[C@H]2O)c2ccc(O)c(c2)-c2c(O)cc(O)cc21
MIC (Acinetobacter baumannii [20]): < 1 µg/mL
MIC (Escherichia coli [21]): 6.25 µg/mL
MIC (Escherichia coli [22]): 6 µg/mL
MIC (Enterobacter cloacae): 12.5 µM
MIC (Klebsiella pneumoniae): 3.15 µg/mL
MIC (Pseudomonas aeruginosa [23]): 6.1 µM
MIC (Escherichia coli [24]): 12.5 µg/mL
MIC (Acinetobacter baumannii [25]): ≤ 2 µg/mL
MIC (Pseudomonas aeruginosa [26]): 0.5 µg/mL
MIC (Acinetobacter baumannii [27]): 3 µM
MIC (Acinetobacter baumannii [28]): ≤ 2 µg/mL
MIC (Enterococcus faecium [29]): 1.2 µM
MIC (Acinetobacter baumannii [30]): 3 µM

CN[C@H](CC(C)C)C(=O)N[C@H]1C(=O)N[C@@H](CC(N)=O)C(=O)N[C@H]2C(=O)N[C@H]3C(=O)N[C@H](C(=O)N[C@H](C(=O)NCCCCCCN(Cc4ccccn4)Cc4ccccn4)c4cc(O)cc(O)c4-c4cc3ccc4O)[C@H](O)c3ccc(c(Cl)c3)Oc3cc2cc(c3O[C@@H]2O[C@H](CO)[C@@H](O)[C@H](O)[C@H]2O[C@H]2C[C@](C)(N)[C@H](O)[C@H](C)O2)Oc2ccc(cc2Cl)[C@H]1O
MIC (Staphylococcus aureus [7]): 1 µM
MIC (Enterococcus faecium [9]): 1.5 µM
MIC (Enterococcus faecium [9]; [34]): 2 µM
Activity (Enterococcus faecium [31]): 5 log10/ml

CN[C@H](CC(C)C)C(=O)N[C@H]1C(=O)N[C@@H](CC(N)=O)C(=O)N[C@H]2C(=O)N[C@H]3C(=O)N[C@H](C(=O)N[C@H](C(=O)NCCSSCCNC(=O)[C@H]4NC(=O)[C@H]5NC(=O)[C@H](NC(=O)[C@@H]6NC(=O)[C@H](CC(N)=O)NC(=O)[C@H](NC(=O)[C@@H](CC(C)C)NC)[C@H](O)c7ccc(c(Cl)c7)Oc7cc6cc(c7O[C@@H]6O[C@H](CO)[C@@H](O)[C@H](O)[C@H]6O[C@H]6C[C@](C)(N)[C@H](O)[C@H](C)O6)Oc6ccc(cc6Cl)[C@H]5O)c5ccc(O)c(c5)-c5c(O)cc(O)cc54)c4cc(O)cc(O)c4-c4cc3ccc4O)[C@H](O)c3ccc(c(Cl)c3)Oc3cc2cc(c3O[C@@H]2O[C@H](CO)[C@@H](O)[C@H](O)[C@H]2O[C@H]2C[C@](C)(N)[C@H](O)[C@H](C)O2)Oc2ccc(cc2Cl)[C@H]1O
Kd [32]: 440 µM
MIC (Staphylococcus aureus [8]): 11 µM
MIC (Enterococcus faecium [9]; [34]): 11 µM
Kd [33]: 1.9 µM
